Measurements reported in patent US11040959B2, “Diprovocims: a new and potent class of TLR agonists” (The Scripps Research Institute, priority 2016, dated 2021).
Read-outs that look alike come from different tables or passages of the source.

Experiments:
mouse macrophages = assay: stimulated release of TNF-α from mouse macrophages; type: cell-based; settings: for EC50: Mus musculus, Macrophage, Scheme 1, footnote b, read-out: EC50 TNF-α release from mouse macrophages
Text: EC50 values are derived from dose-response curves for the stimulated release of TNF-α from differentiated THP-1 cells or mouse macrophages are shown beneath each appropriate structural formula of Compounds 8-12. Half maximal effective concentration (EC50) refers to the concentration of a drug, antibody or toxicant that induces a response halfway between the baseline and maximum after a specified exposure time. It is commonly used as a measure of a drug's potency.

[1] = tested on: differentiated human THP-1 cells; assay: stimulated release of TNF-α from differentiated human THP-1 cells (ELISA, dose-response); type: cell-based; settings: for EC50: Homo sapiens
Description: A screening campaign was conducted with nearly 100,000 compounds [(a) Whitby et al., Acc. Chem. Res. 2012, 45:1698-1709; and (b) Boger et al., Angew. Chem. Int. Ed. 2003, 42:4138-4176], using a newly developed functional assay that measured the stimulated release of TNF-α from treated human THP-1 cells partially differentiated along the macrophage line [unpublished results of the inventors and co-workers]. […] The libraries screened in the efforts represent a unique compound collection populated by nontraditional compounds [(a) Whitby et al., Acc. Chem. Res. 2012, 45:1698-1709; and (b) Boger et al., Angew. Chem. Int. Ed. 2003, 42:4138-4176] designed to target protein-protein [(a) Shaginian et al., J. Am. Chem. Soc. 2009, 131:5564-5572; and (b) Whitby et al., J. Am. Chem. Soc. 2011, 133:10184-10194] or protein-DNA interactions [Stover et al., J. Am. Chem. Soc. 2009, 131:3342-3348] as well as the major enzyme classes [Otrubova et al., Bioorg. Med. Chem. Lett. 2014, 24:3807-3813].
Hits were confirmed in an ELISA assay for stimulated TNF-α release from human PMA differentiated THP-1 cells and this assay was used for establishing dose-response curves and measured EC50 values.

[2] = THP-1, Scheme 1, footnote a, read-out: EC50 TNF-α release from human THP-1 cells

## O=C(N[C@H]1C[C@@H]1c1ccccc1)[C@H]1CN(C(=O)c2ccc(C(=O)N3C[C@@H](C(=O)N[C@H]4C[C@@H]4c4ccccc4)[C@H](C(=O)N[C@H]4C[C@@H]4c4ccccc4)C3)cc2)C[C@@H]1C(=O)N[C@H]1C[C@@H]1c1ccccc1 [Compound 22, (3S,4S)-1-(4-((3R,4R)-3,4-Bis(((1S,2R)-2-phenylcyclopropyl)carbamoyl)pyrrolidine-1-carbonyl)-benzoyl)—N^3,N^4-bis((1S,2R)-2-phenylcyclopropyl)-pyrrolidine-3,4-dicarboxamide]
Mouse macrophages
  EC50: 150 nM
[1]; [2]
  EC50: 3 nM

## O=C(N[C@H]1C[C@@H]1c1ccccc1)[C@H]1CN(C(=O)c2ccc(C(=O)N3C[C@@H](C(=O)N[C@@H]4C[C@H]4c4ccccc4)[C@H](C(=O)N[C@@H]4C[C@H]4c4ccccc4)C3)cc2)C[C@@H]1C(=O)N[C@H]1C[C@@H]1c1ccccc1 [Compound 23, (3R,4R)-1-(4-((3S,4S)-3,4-Bis(((1R,2S)-2-phenyl-cyclopropyl)carbamoyl)-pyrrolidine-1-carbonyl)-benzoyl)—N^3,N^4-bis((1S,2R)-2-phenylcyclopropyl)-pyrrolidine-3,4-dicarboxamide]
Mouse macrophages
  EC50: > 5000 nM
[1]; [2]
  EC50: > 5000 nM

## O=C(N[C@@H]1C[C@H]1c1ccccc1)[C@H]1CN(C(=O)c2ccc(C(=O)N3C[C@@H](C(=O)N[C@@H]4C[C@H]4c4ccccc4)[C@H](C(=O)N[C@@H]4C[C@H]4c4ccccc4)C3)cc2)C[C@@H]1C(=O)N[C@@H]1C[C@H]1c1ccccc1 [Compound 24, (3S,4S)-1-(4-((3R,4R)-3,4-Bis(((1R,2S)-2-phenyl-cyclopropyl)carbamoyl)-pyrrolidine-1-carbonyl)-benzoyl)—N^3,N^4-bis((1R,2S)-2-phenylcyclopropyl)-pyrrolidine-3,4-dicarboxamide]
Mouse macrophages
  EC50: > 5000 nM
[1]; [2]
  EC50: > 5000 nM

## O=C(N[C@H]1C[C@@H]1c1ccccc1)[C@@H]1CN(C(=O)c2ccc(C(=O)N3C[C@@H](C(=O)N[C@@H]4C[C@H]4c4ccccc4)[C@H](C(=O)N[C@@H]4C[C@H]4c4ccccc4)C3)cc2)C[C@H]1C(=O)N[C@H]1C[C@@H]1c1ccccc1 [Compound 25, (3S,4S)-1-(4-((3S,4S)-3,4-Bis(((1R,2S)-2-phenylcyclopropyl)carbamoyl)-pyrrolidine-1-carbonyl)-benzoyl)—N^3,N^4-bis((1S,2R)-2-phenylcyclopropyl)-pyrrolidine-3,4-dicarboxamide]
Mouse macrophages
  EC50: > 5000 nM
[1]; [2]
  EC50: 6 nM

## O=C(N[C@H]1C[C@@H]1c1ccccc1)[C@H]1CN(C(=O)c2ccc(C(=O)N3C[C@H](C(=O)N[C@@H]4C[C@H]4c4ccccc4)[C@@H](C(=O)N[C@@H]4C[C@H]4c4ccccc4)C3)cc2)C[C@@H]1C(=O)N[C@H]1C[C@@H]1c1ccccc1 [Compound 26, (3R,4R)-1-(4-((3R,4R)-3,4-Bis(((1R,2S)-2-phenylcyclopropyl)carbamoyl)-pyrrolidine-1-carbonyl)-benzoyl)—N^3,N^4-bis((1S,2R)-2-phenylcyclopropyl)-pyrrolidine-3,4-dicarboxamide]
Mouse macrophages
  EC50: > 5000 nM
[1]; [2]
  EC50: ≥ 5000 nM

## O=C(N[C@@H]1C[C@H]1c1ccccc1)[C@H]1CN(C(=O)c2ccc(C(=O)N3C[C@@H](C(=O)N[C@H]4C[C@@H]4c4ccccc4)[C@H](C(=O)N[C@H]4C[C@@H]4c4ccccc4)C3)cc2)C[C@@H]1C(=O)N[C@@H]1C[C@H]1c1ccccc1 [Compound 27, (3S,4S)-1-(4-((3R,4R)-3,4-Bis(((1R,2S)-2-phenyl-cyclopropyl)carbamoyl)-pyrrolidine-1-carbonyl)-benzoyl)—N^3,N^4-bis((1S,2R)-2-phenylcyclopropyl)-pyrrolidine-3,4-dicarboxamide]
Mouse macrophages
  EC50: ≥ 5000 nM
[1]; [2]
  EC50: 20 nM

## O=C(N[C@H]1C[C@@H]1c1ccccc1)[C@@H]1CN(C(=O)c2ccc(C(=O)N3CCCC3)cc2)C[C@H]1C(=O)N[C@H]1C[C@@H]1c1ccccc1 [Compound 30, (3S,4S)—N^3,N^4-Bis((S, 2R)-2-phenyl-cyclopropyl)-1-(4-(pyrrolidine-1-carbonyl)benzoyl)-pyrrolidine-3,4-dicarboxamide]
Mouse macrophages; printed as in mouse macrophages
  fold less active than 29: 10 fold
[1]; THP-1, running text, read-out: EC50, stimulated release of TNF-α from differentiated human THP-1 cells
  EC50: 2000 nM
[1]; human THP-1 cells
  fold less active/potent than diprovocim-1 (3): 20,000 fold
